Laboratory results from patent publication US9868746B2, “Substituted 5-aminothieno[2,3-C]pyridazine-6-carboxamide analogs as positive allosteric modulators of the muscarinic acetylcholine receptor M4” (Vanderbilt University, priority 2012, dated 2018).

Biological target: T1, mAChR M4 (Homo sapiens, UniProt P08173)
T1 construct: expressed in transfected cells; host or cells: CHO-K1 cells stably transfected with M4 cDNA and chimeric G-protein Gqi5
T1 sequence (P08173 1-479): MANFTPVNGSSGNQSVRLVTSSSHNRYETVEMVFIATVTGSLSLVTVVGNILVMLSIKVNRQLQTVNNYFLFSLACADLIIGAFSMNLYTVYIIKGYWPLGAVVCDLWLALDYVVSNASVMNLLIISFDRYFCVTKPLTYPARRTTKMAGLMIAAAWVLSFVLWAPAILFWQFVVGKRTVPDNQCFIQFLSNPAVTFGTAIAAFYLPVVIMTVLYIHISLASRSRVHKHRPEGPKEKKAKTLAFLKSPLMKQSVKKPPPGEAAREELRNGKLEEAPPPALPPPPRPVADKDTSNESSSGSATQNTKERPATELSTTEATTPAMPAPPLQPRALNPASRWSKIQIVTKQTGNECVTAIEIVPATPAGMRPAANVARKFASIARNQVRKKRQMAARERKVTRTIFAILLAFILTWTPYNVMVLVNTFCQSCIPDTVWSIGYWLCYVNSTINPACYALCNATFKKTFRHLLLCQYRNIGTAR
Assay: mAChR M4 cell-based functional assay (calcium mobilization, potentiation of EC20 acetylcholine response)
Conditions: for Emax at 30 µM: % ACh maximum at 30 μM; for EC50: mAChR M4 cell-based functional assay, >10,000 estimated for low potency compounds without plateau, read-out: EC50

| Emax at 30 µM [%] | EC50 [µM] | SMILES |
| --- | --- | --- |
| 58 | 0.047 | Cc1nnc2sc(C(=O)NCc3c(F)ccc(F)c3Cl)c(N)c2c1C [Example B85] |
| 69 | 0.094 | Cc1nc(C)c(S(=O)(=O)N2CC(NC(=O)c3sc4nnc(C)c(C)c4c3N)C2)s1 [Example B103] |
| 84 | 1.2 | Cc1nnc2sc(C(=O)NC3CCN(C(=O)C4CCC4)C3)c(N)c2c1C (centres unmarked) [Example B239] |
| 51 | 0.088 | Nc1c(C(=O)NCc2ccc(S(=O)(=O)CF)cc2)sc2nnc3c(c12)CCCC3 [Example B428] |
| 71 | 0.39 | Cc1nnc2sc(C(=O)NC3CCN(S(=O)(=O)c4cccc(F)c4)C3)c(N)c2c1C (centres unmarked) [Example B253] |
| 56 | 4.1 | Cc1nnc2sc(C(=O)N3CC(NCc4ccc(F)cc4)C3)c(N)c2c1C [Example B59] |
| 64 | 0.018 | Cc1nnc2sc(C(=O)NC3CN(C(=O)Nc4ccccc4)C3)c(N)c2c1C [Example B362] |
| 66 | 0.024 | Cc1nnc2sc(C(=O)NC3CCN(c4ccccc4)C3)c(N)c2c1C (centres unmarked) [Example B113] |
| 77 | 0.29 | CCS(=O)(=O)N1CC(NC(=O)c2sc3nnc(C)c(C)c3c2N)C1 [Example B142] |
| 58 | 1 | Cc1nnc2sc(C(=O)NC3CN(C(=O)N4CCCCC4)C3)c(N)c2c1C [Example B125] |
| 69 | 0.061 | Cc1nnc2sc(C(=O)NCc3ccc4c(ccn4C)c3)c(N)c2c1C [Example B196] |
| 64 | 3.6 | Cc1nnc2sc(C(=O)NCCNC(=O)OCc3ccccc3)c(N)c2c1C [Example B345] |
| 75 | 0.018 | Cc1nnc2sc(C(=O)NCc3ccc(Br)cc3)c(N)c2c1C [Example B448, 5-amino-N-(4-bromobenzyl)-3,4-dimethylthieno[2,3-c]pyridazine-6-carboxamide] |
| 62 | 2 | Cc1nnc2sc(C(=O)NC3C4CC5CC(C4)CC3C5)c(N)c2c1C (centres unmarked) [Example B281] |
| 62 |  | Cc1nnc2sc(C(=O)NCc3ccc(S(=O)(=O)C(F)(F)F)cc3)c(N)c2c1C [Example B66] |
| 34 | > 10 | Cc1nnc2sc(C(=O)N3CC(NCc4cccnc4)C3)c(N)c2c1C [Example B62] |
| 88 | 0.18 | Cc1nnc2sc(C(=O)NC3CN(C(=O)C4CCC4)C3)c(N)c2c1C [Example B122] |
| 71 | 0.23 | Cc1nnc2sc(C(=O)NC3CCN(c4ccc(OC(F)(F)F)cc4)C3)c(N)c2c1C (centres unmarked) [Example B273] |
| 75 | 1.5 | Cc1nnc2sc(C(=O)NC3CCCCC3)c(N)c2c1C [Example B97] |
| 99 | 0.25 | COc1ccc(CNC(=O)c2sc3nnc(C)c(C)c3c2N)cc1 [Example B16] |
| 92 | 0.84 | Cc1nnc2sc(C(=O)NC3CN(C(=O)C(C)(C)C)C3)c(N)c2c1C [Example B121] |

| Emax at 30 µM [%] | EC50 [µM] | SMILES |
| --- | --- | --- |
| 74 | 0.076 | Cc1nnc2sc(C(=O)NC3CN(C(=O)c4ccc5c(c4)OCO5)C3)c(N)c2c1C [Example B133] |
| 71 | 0.037 | Cc1nnc2sc(C(=O)NCc3ccc(-c4cncc(F)c4)cc3)c(N)c2c1C [Example B487] |
| 76 | 0.026 | Cc1nnc2sc(C(=O)NCc3ccc4c(c3)OC(F)(F)O4)c(N)c2c1C [Example B42] |
| 65 | > 10 | Cc1nnc2sc(C(=O)NCc3ccc(=O)n(C)c3)c(N)c2c1C [Example B444] |
| 51 | > 10 | Cc1nnc2sc(C(=O)NCCNS(C)(=O)=O)c(N)c2c1C [Example B352] |
| 79 | 0.17 | Cc1nnc2sc(C(=O)NC3CCN(c4ccc(F)cc4)C3)c(N)c2c1C (centres unmarked) [Example B346] |
| 47 | 0.29 | Cc1nnc2sc(C(=O)N3CC(F)(c4cccc(-c5cncnc5)c4)C3)c(N)c2c1C [Example B317] |
| 50 | 0.072 | Cc1nnc2sc(C(=O)N3CC(F)(c4ccc(S(=O)(=O)C(F)F)cc4)C3)c(N)c2c1C [Example B377] |
| 80 | 0.11 | Cc1nnc2sc(C(=O)NC3CN(C(=O)CCc4ccccc4)C3)c(N)c2c1C [Example B129] |
| 96 | 0.64 | Cc1cc(CNC(=O)c2sc3nnc(C)c(C)c3c2N)ccn1 [Example B4] |
| 97 | 0.26 | Cc1nnc2sc(C(=O)NC3CC3)c(N)c2c1C [Example B8] |
| 79 | 0.58 | Cc1ccc(S(=O)(=O)N2CCC(NC(=O)c3sc4nnc(C)c(C)c4c3N)C2)cc1 (centres unmarked) [Example B244] |
| 64 | 0.43 | Cc1nnc2sc(C(=O)NCc3cccc(-c4ccccc4)c3)c(N)c2c1C [Example B469] |
| 73 | 0.037 | Cc1nnc2sc(C(=O)NCc3ccc(S(C)(=O)=O)c(F)c3)c(N)c2c1C [Example B33] |
| 49 | 4.5 | Cc1nnc2sc(C(=O)NCCN(C)S(=O)(=O)c3ccc(F)cc3)c(N)c2c1C [Example B358] |
| 51 | 1.1 | Cc1nnc2sc(C(=O)N3CC(N)(c4ccccc4)C3)c(N)c2c1C [Example B306] |
| 75 | 0.19 | Cc1nnc2sc(C(=O)NCc3ccc(-c4ccccc4O)cc3)c(N)c2c1C [Example B494] |
| 63 | 0.025 | CCOc1ccc(CNC(=O)c2sc3nnc(C)c(C)c3c2N)cc1 [Example B198] |
| 76 | 0.028 | Cc1nnc2sc(C(=O)NCc3ccc(-c4cccs4)cc3)c(N)c2c1C [Example B460] |
| 71 | 0.02 | Cc1nnc2sc(C(=O)NCc3ccc(C(C)(O)C(F)(F)F)cc3)c(N)c2c1C (centres unmarked) [Example B106] |
| 82 | 0.13 | Cc1ccc(S(=O)(=O)N2CC(NC(=O)c3sc4nnc(C)c(C)c4c3N)C2)cc1F [Example B145] |

| Emax at 30 µM [%] | EC50 [µM] | SMILES |
| --- | --- | --- |
| 64 | 0.027 | Cc1nnc2sc(C(=O)NCc3ccc(-c4cc(F)nc(F)c4)cc3)c(N)c2c1C [Example B455] |
| 48 | > 10 | Cc1nnc2sc(C(=O)N3CC[C@H](F)C3)c(N)c2c1C [Example B69] |
| 56 | 0.9 | CC(O)(c1ccc(CNC(=O)c2sc3nnc4c(c3c2N)CCCC4)cc1)C(F)(F)F (centres unmarked) [Example B188] |
| 82 | 0.085 | COc1cccc(C(=O)N2CC(NC(=O)c3sc4nnc(C)c(C)c4c3N)C2)c1 [Example B127] |
| 73 | 0.023 | Cc1nnc2sc(C(=O)NCc3ccc(OCC(F)F)cc3)c(N)c2c1C [Example B176] |
| 85 | 0.016 | Cc1nnc2sc(C(=O)NCc3ccc(S(=O)(=O)C(F)F)c(F)c3)c(N)c2c1C [Example B468] |
| 27 | > 10 | Cc1nnc2sc(C(=O)NCCN(C)C(=O)c3ccc(F)cc3)c(N)c2c1C [Example B357] |
| 60 | 0.074 | Cc1nnc2sc(C(=O)NC3CN(C(=O)c4cccc(Cl)c4)C3)c(N)c2c1C [Example B392] |
| 37 | 0.79 | Nc1c(C(=O)NCC2CC2)sc2nnc3c(c12)CCCC3 [Example B54] |
| 82 | 0.053 | Cc1nnc2sc(C(=O)NCc3ccc(OCF)cc3)c(N)c2c1C [Example B411] |
| 41 | 0.36 | COc1ccc(C2(CNC(=O)c3sc4nnc(C)c(C)c4c3N)CC2)cc1 [Example B75] |
| 68 | 2.6 | Cc1nnc2sc(C(=O)NC(C)(C)C)c(N)c2c1C [Example B68] |
| 60 | 1.7 | CCCOC(=O)NC1CN(C(=O)c2sc3nnc(C)c(C)c3c2N)C1 [Example B178] |
| 43 | 1.1 | COC1(C2CCCCC2)CN(C(=O)c2sc3nnc(C)c(C)c3c2N)C1 [Example B304] |
| 67 | 0.44 | Cc1nnc2sc(C(=O)NC3CN(c4ncc(-c5ccccc5)s4)C3)c(N)c2c1C [Example B426] |
| 72 | 0.36 | Cc1nnc2sc(C(=O)NC3CCN(C(=O)Cc4ccccc4)C3)c(N)c2c1C (centres unmarked) [Example B235] |
| 55 | 2.8 | Cc1nnc2sc(C(=O)N3CC(F)(c4ccncc4)C3)c(N)c2c1C [Example B312] |
| 71 | 3 | COc1ccccc1N1CCC(NC(=O)c2sc3nnc(C)c(C)c3c2N)C1 (centres unmarked) [Example B271] |
| 66 | 0.019 | Cc1nnc2sc(C(=O)NCc3ccc(-c4cccnc4F)cc3)c(N)c2c1C [Example B454] |

| SMILES | Emax at 30 µM [%] | EC50 [µM] |
| --- | --- | --- |
| Cc1nnc2sc(C(=O)N3CC(NC(=O)Oc4ccccc4)(c4ccccc4)C3)c(N)c2c1C [Example B309] | 48 | > 10 |
| Cc1nnc2sc(C(=O)NCc3ccc(S(=O)(=O)CCO[Si](c4ccccc4)(c4ccccc4)C(C)(C)C)cc3)c(N)c2c1C [Example B335] | 74 | 0.89 |
